Data on one compound can be found in patent US20250269018A1, “COMBINED CANCER THERAPY WITH AN EPITHELIAL CELL ADHESION MOLECULE (EPCAM) INHIBITOR AND A HEPATOCYTE GROWTH FACTOR RECEPTOR (HGFR) INHIBITOR” (ACADEMIA SINICA, priority 2021, published 2025).

The subject of the assay is HGFR signaling. The assay is described as follows: Western blotting of phosphorylated ERK and AKT in HT29 cells. Format: cell-based, human. The conditions noted are these: SU11274 with EpEX-His, FIG. 2C. As for the experimental part:
FIGS. 2A to 2K. EpEX promotes tumor progression via HGFR signaling. (FIG. 2A) WT or EpCAM knockout (KO) HCT116 and HT29 cells treated with HGF (0.5 nM) for 15 min. The phosphorylation of HGFR, AKT, and ERK was examined by Western blotting. (FIG. 2B) WT or KO HCT116 and HT29 cells were treated with HGF (0.5 nM) with 2% FBS for the indicated times. Cell growth was examined by the WST-1 assay. (FIG. 2C) Starved HCT116 cells were treated with HGFR inhibitor SU11274 (SU, 10 μM) for 1 h then treated with 50 nM of EpEX-His for 15 min. The levels of phosphorylated HGFR, EGFR, AKT, and ERK were examined by Western blotting. HCT116 and HT29 cells were treated with 50 nM EpEX and SU (10 μM). […]
Whole cell extracts were prepared with RIPA buffer (50 mM Tris-HCl pH7.4, 1% NP-40, 0.5% Sodium deoxycholate, 0.1% SDS, 150 mM NaCl, 2 mM EDTA, 50 mM NaF). Protein concentrations of the cell lysates were determined by the Bradford assay. […]
Appropriate horseradish peroxidase-associated secondary antibodies (Millipore) were applied and the membranes were incubated at room temperature (RT) for 1 h. The protein bands were subsequently visualized with chemiluminescence reagents (Millipore) and detected on a BioSpectrum 600 Imaging system (UVP). The protein level was quantified from band intensity using Gel-Pro analyzer 3.1 (Media Cybernetics).
Background: In western blotting, separated proteins are transferred to a membrane and probed.

With `Cc1[nH]c(C=C2C(=O)Nc3ccc(S(=O)(=O)N(C)c4cccc(Cl)c4)cc32)c(C)c1C(=O)N1CCN(C)CC1` (stereo in doubt) [SU11274, (3Z)-N-(3-Chlorophenyl)-3-({3,5-dimethyl-4-[(4-methylpiperazin-1-yl)carbonyl]-1H-pyrrol-2-yl}methylene)-N-methyl-2-oxo-2,3-dihydro-1H-indole-5-sulfonamide], the “EpEX-mediated ERK and AKT phosphorylation” value was “attenuate EpEX-mediated ERK and AKT phosphorylation”.
